This note sets out measurements from US10597398B2, “Suppression and regeneration promoting effect of low molecular weight compound on cancer and fibrosis” (NATIONAL UNIVERSITY CORPORATION TOTTORI UNIVERSITY, priority 2015, dated 2020).

Type in all cases: cell-based, human
The test system of data set [1] is LX-2 cells. Kind of data set: Growth inhibitory effect on LX-2 cells. The conditions noted are these: 100 μM.
For data set [2], the system named is Wnt/β-catenin signaling. Kind of data set: Inhibitory effect on Wnt/β-catenin signaling in mesenchymal stem cells (E7-TCF4 luciferase). As to the method:
A pTCF4-CMVpro-GL4.20 plasmid vector, having 3 copies of TCF4 motifs (CCT TTG ATC) upstream of aCMV promoter in a multiple cloning site of pGL4.20 (Promega Corp., Fitchburg, Wis.), was linearized and stably transfected into UE7T-13 cells to prepare E7-TCF4 cells. Also, a pCMVpro-GL4.20 plasmid vector, having a CMV promoter in a multiple cloning site of pGL4.20, was linearized and stably transfected into UE7T-13 cells. The resulting stable cells (E7-CMV cells) were cultured, like UE7T-13 cells, in 10% FBS/DMEM containing 0.25 μg/mL puromycin.
UE7T-13 cells were used to measure Wnt/β-catenin signaling activity. The concentrations of the respective compounds were as described in FIG. 42. Each control sample used was 0.1% DMSO, a solvent for each compound.
First, 70 to 90% confluent E7-TCF4 cells and E7-CMV cells were harvested and seeded (n=3) at 1.6758×10^4 cells/well of a 24-well plate (9.0×10^3 cells/cm^2). One day after that, each compound was added to the cells and the mixture was cultured at 37° C. Day 4 after the compound addition, the culture medium was changed.
At day 1, 4, or 8 after the compound treatment, the culture medium was discarded, and 100 μL of room temperature 5×Passive Lysis Buffer (PLB), which had been diluted 5-fold with MilliQ water, was added to each well. Next, the plate was shaken at room temperature for 15 min and was then frozen at −30° C. overnight. A Luciferase Assay Substrate was diluted with 10 mL of room temperature Luciferase Assay Buffer II to prepare Luciferase Assay Reagent II (LARII). The frozen PLB lysate samples were thawed and permeabilized for 15 min. Then, 10 μL aliquots were added to wells of a 96-well white plate. While 50 μL aliquots of LARII were each added to each well, luminescence was quantified by using a 1420 multi-label counter ARVO MX to determine firefly luciferase activity.

Data set [3] relates to HuH-7 cells. As to the kind of experiment: Growth inhibitory effect on cancer cells (WST assay), Example 2.3. The note with it: for IC50: HuH-7 cells, WST assay, concentrations 0-50 μM, control 0.1% DMSO; for IC50 compared with IC-2: comparison with IC-2. As for the experimental part:
HuH-7 cells, a human liver cancer cell line, were cultured on 10-cm cell culture dishes (TPP Techno Plastic Products AG, Trasadingen, Switzerland) by using DMEM under conditions at 5% CO2, 37° C., and 100% humidity. When the cells were 70 to 90% confluent, 200 μL of 0.25% Trypsin/1 mM EDTA solution, which had been prepared by diluting the stock solution 10-fold with PBS (−), was added to detach the cells. Then, the cells were centrifuged at 1000 rpm for 3 min at room temperature. The cells recovered were subcultured at a 1:4 split ratio.
First, 70 to 90% confluent HuH-7 cells were harvested and seeded (n=3) at 5×10^3 cells/well of a 96-well plate (TPP). After 24 h, each compound was added to the cells and the mixture was cultured at 37° C. The concentrations of each compound were 0, 10, 20, 30, 40, and 50 μM. For IC-2-506-1, however, the concentrations used were 0, 10, 20, 25, 30, 40, and 50 μM. Each control sample (0 μM) used was 0.1% DMSO, a solvent for each compound.
Next, 0, 24, 48, and 96 h after the compound treatment, 100 μIL of DMEM-diluted 10% Cell Counting Kit-8 (DOJINDO LABORATORIES, Kumamoto) was added. The mixture was incubated at 37° C. for 60 min and its absorbance (at a measurement wavelength of 450 nm/control wavelength of 600 nm) was measured by using a Sunrise Rainbow RC (Tecan Group Ltd., Mannedorf, Switzerland). Absorbance for the cells alone was calculated by subtracting, from the reading obtained, absorbance for 10% Cell Counting Kit-8 alone.
The “*” in figures indicates a significant difference of p<0.05 between 0.1% DMSO and each compound; and the “**” indicates a significant difference of p<0.01 (the same applies to all the figures in Examples).

Data set [4] relates to mesenchymal stem cell. Kind of data set: Hepatocyte differentiation-inducing effect, summary statements on Example 4 (readout not specified). The conditions noted are these: low concentration. The source says: Albumin, a hepatocyte marker, was used as an indicator, and RNA was collected from cells treated with each compound. Next, a hepatocyte differentiation-inducing effect was examined by real-time RT-PCR. The concentrations of the respective compounds were as described in FIG. 35. Each control sample used was 0.1% DMSO, a solvent for each compound.
By using urea synthesis, a hepatocyte function, as an indicator, a hepatocyte differentiation-inducing effect of each compound was investigated.
The cells treated with each compound were subjected to immunofluorescence analysis of albumin, a hepatocyte marker, to investigate a hepatocyte differentiation-inducing effect. The concentrations of the respective compounds were as described in FIG. 37. Each control sample used was 0.1% DMSO, a solvent for each compound.
By using glycogen synthesis, a hepatocyte function, as an indicator, a hepatocyte differentiation-inducing effect of each compound was investigated.

Data set [5] deals with Wnt/β-catenin signaling. As to the kind of experiment: Inhibitory effect on Wnt/β-catenin signaling in liver cancer cells (HuH7-TCF4 luciferase). The note with it: concentration equal to or lower than that of IC-2. As to the method: A pTCF4-CMVpro-GL4.20 plasmid vector, which had been constructed by inserting 3 copies of TCF4 motifs (CCT TTG ATC) upstream of a CMV promoter into a multiple cloning site of pGL4.20 (Promega Corp., Fitchburg, Wis.), was linearized and stably transfected into the HuH-7 cells. The resulting stable cells (HuH7-TCF4 cells) and HuH-7 cells were likewise cultured.
While each compound was added at concentrations where the growth of HuH-7 cells was reduced to about 50% or less, Wnt/β-catenin signaling activity was measured. The concentrations of the respective compounds were as described in FIG. 40. Control samples used were 0.1% DMSO, a solvent for each compound, and 0.5 μM 5-FU.
First, 70 to 90% confluent HuH7-TCF4 cells were harvested and seeded (n=3) at 5.0×10^4 cells/well of a 24-well plate (TPP). After 24 h, each compound was added to the cells and the mixture was cultured at 37° C.
At 48 h after the compound treatment, the culture medium was discarded, and 100 μL of room temperature 5×Passive Lysis Buffer (PLB) (Promega Corp., Fitchburg, Wis.), which had been diluted 5-fold with MilliQ water, was added to each well. Next, the plate was shaken at room temperature for 15 min and was then frozen at −30° C. overnight. A Luciferase Assay Substrate was diluted with 10 mL of room temperature Luciferase Assay Buffer II to prepare Luciferase Assay Reagent II (LARII) (Promega). The frozen PLB lysate samples were thawed and permeabilized for 15 min. Then, 10 μL aliquots were added to wells of a 96-well white plate (Corning Inc., Corning, N.Y.). While 50 μL aliquots of LARII were each added to each well, luminescence was quantified by using a 1420 multi-label counter ARVO MX (PerkinElmer Singapore Pte Ltd., Singapore) to determine firefly luciferase activity. Note that a significant difference was evaluated by using (two-tailed) Student's t-test. The “*” in figures indicates a significant difference of p<0.05 between 0.1% DMSO and each compound; and the “**” indicates a significant difference of p<0.01 (the same applies to all the figures in Examples).

The test system of data set [6] is LX-2 cells. As to the kind of experiment: Anti-fibrosis effect, summary statements on Example 3 (marker not specified). The conditions noted are these: concentration even lower than that of IC-2. The text has this: α-Smooth muscle actin (α-SMA), a fibrosis marker, was used as an indicator, and RNA was collected from LX-2 cells treated with each low-molecular-weight compound. Next, an inhibitory effect on fibrosis was examined by real-time RT-PCR.
In addition, instead of α-SMA, another fibrosis marker collagen, type I, alpha 1 (COL1A1) was used as an indicator, and substantially the same protocol was repeated. The concentrations of each compound used were as described in FIG. 34. Each control sample used was 0.1% DMSO, a solvent for each compound. Here, COL1A1 primers used were 5′-CCT CCA GGG CTC CAA CGA G-3′ and 5′-TCAATCACTGTCTTGCCCCA-3′. The annealing was performed at 58° C. for 5 sec. The measurement results were obtained by dividing the calculated value for the COL1A1 gene by the calculated value for the GAPDH gene.

Data set [7] concerns cancer stem cells (CD44) in HuH-7 cells. As to the kind of experiment: Inhibitory effect on cancer stem cells (FCM analysis of CD44), Example 2.4. The note with it: for inhibitory effect on cancer stem cells compared with IC-2: comparison with IC-2. As to the method: CD44, a cancer stem cell marker, was used as an indicator to examine an inhibitory effect of each compound on cancer stem cells. The concentrations of the respective compounds were as described in FIG. 32. Each control sample used was 0.1% DMSO, a solvent for each compound. In the figures, the “‡” indicates a significant difference of p<0.01.
First, 70 to 90% confluent HuH-7 cells were harvested and seeded at 1.5×10^6 cells per 10-cm cell culture dish. After 24 h, each compound was added to the cells and the mixture was cultured at 37° C. At 48 h after the compound treatment, the cells were harvested from each culture dish. The cells were centrifuged at 1000 rpm and at 4° C. for 3 min to remove a supernatant and were then washed twice with 1 mL of 0.5% FBS/2 mM EDTA/PBS. Next, the cells were suspended in 500 μL of 5% BSA/0.5% FBS/2 mM EDTA/PBS for blocking at 4° C. for 15 min. Then, 5 μL of a mouse anti-human CD44 monoclonal antibody (156-3C11, Cell Signaling Technology Inc., Danvers, Mass.) was added to 500 μL of the cell suspension. The mixture was resuspended and subjected to a primary antibody reaction in a dark room at 4° C. for 30 min. After that, the cells were washed 3 times with 1 mL of 0.5% FBS/2 mM EDTA/PBS. Subsequently, 100 μL of Alexa Fluor 488-labeled IgG (H+L) (ab150113, Abcam Ltd., Cambridge, UK), which had been diluted 200-fold with 5% BSA/0.5% FBS/2 mM EDTA/PBS, was added and the cells were suspended. Then, a secondary antibody reaction was carried out in a dark room at 4° C. for 30 min. After that, the cells were washed 3 times with 1 mL of 0.5% FBS/2 mM EDTA/PBS. Thereafter, the cells were suspended in 500 μL of 0.5% FBS/2 mM EDTA/PBS and were made to pass through a 40 μm-mesh column (Becton, Dickinson and Company, Franklin Lakes, N.J.). A Beckman Coulter-Moflo XDP (Beckman Coulter Inc., Fullerton, Calif.) was used for analysis. Following the analysis, further analysis was conducted by adding 2 μL of 0.25 mg/mL Propidium Iodide (PI). The same experiment was repeated four times.

For `NC(=O)N1CCC(=O)N2C(Cc3ccccc3)C(=O)N(Cc3cccc4ccccc34)CC12` (stereo not shown) [Compound 9b-CONH2], in data set [1], the “growth inhibitory effect on LX-2 cells” value is “Neither 100 μM of 9b nor 9b-CONH2 exhibited a growth inhibitory effect”.

As for `O=C1C(Cc2ccccc2)N2C(=O)CCNC2CN1Cc1cccc2ccccc12` (stereo not shown) [Compound 9b], the “growth inhibitory effect on LX-2 cells” value in data set [1] is “Neither 100 μM of 9b nor 9b-CONH2 exhibited a growth inhibitory effect”. Also, in data set [2] (E7-TCF4 cells, day 8 after compound addition, compared with control 0.1% DMSO), the “inhibitory effect on Wnt/β-catenin signaling in mesenchymal stem cells” value was “all the compounds except for IC-2-Ar-OMe, 9b, and 7c-NT exhibited a significant inhibitory effect”.

In the case of `O=C1C(Cc2ccccc2)N2C(=O)CCN(C(=O)NCc3ccc(F)cc3)C2CN1Cc1cccc2ccccc12` (stereo not shown) [IC-2-F], in data set [3], half-maximal inhibition (IC50) was put at 22.2 µM and the “IC50 compared with IC-2” value was “lower IC50 than IC-2”. In addition, the “hepatocyte-inducing effect at low concentration” value in data set [4] is on record as “exerted a hepatocyte-inducing effect”. Also, the “inhibitory effect on Wnt/β-catenin signaling pathway in liver cancer cells compared with IC-2” value in data set [5] is “more potent inhibitory effect”. In addition, the “anti-fibrosis effect compared with IC-2, lower concentration” value in data set [6] was “more potent anti-fibrosis effect”. In addition, in data set [7], the “inhibitory effect on cancer stem cells compared with IC-2” value is given as “more potent inhibitory effect on cancer stem cells than IC-2”.

In turn, `O=C1C(Cc2ccccc2)N2C(=O)CCN(C(=O)NCc3ccc([N+](=O)[O-])cc3)C2CN1Cc1cccc2ccccc12` (stereo not shown) [IC-2-NO2] returned a half-inhibitory concentration (IC50) in data set [3] of 28.1 µM. Moreover, the “inhibitory effect on Wnt/β-catenin signaling pathway in mesenchymal stem cells compared with IC-2” value in data set [2] (concentration equal to or lower than that of IC-2) was “more potent inhibitory effect”. Also, in data set [5], the “inhibitory effect on Wnt/β-catenin signaling pathway in liver cancer cells compared with IC-2” value is “more potent inhibitory effect”. Also, in data set [7], the “inhibitory effect on cancer stem cells compared with IC-2” value is “more potent inhibitory effect on cancer stem cells than IC-2”.

With `CC(C)(C)[Si](C)(C)Oc1ccc(CNC(=O)N2CCC(=O)N3C(Cc4ccccc4)C(=O)N(Cc4cccc5ccccc45)CC23)cc1` (stereo not shown) [IC-2-OTBS], in data set [3], the IC50 was found to be 11.8 µM and the “IC50 compared with IC-2” value is on record as “lower IC50 than IC-2”. Also, the “anti-tumor effect compared with IC-2” value in data set [3] (at a concentration lower than that of IC-2) is recorded as “more potent anti-tumor effect”. Also, in data set [4], the “hepatocyte-inducing effect at low concentration” value is reported as “exerted a hepatocyte-inducing effect”. For the same molecule, in data set [6], the “anti-fibrosis effect compared with IC-2, lower concentration” value is “more potent anti-fibrosis effect”. Moreover, in data set [7] (concentration even lower than that of IC-2), the “inhibitory effect on cancer stem cells at a concentration lower than that of IC-2” value is “exerted an inhibitory effect on cancer stem cells”.
